Activity calls are given as the source filed them. No cut-off for these calls is given here.
Key:
HCT-116 [1] = experiment: Induction of apoptosis in human HCT-116 cells assessed as early apoptotic cells level at 0.001 uM incubated for 24 hrs by Annexin V-FITC/PI staining based flow cytometry (reference value: 0.17%); assay type: functional
NCI-H1975 = experiment: Cytotoxicity against human NCI-H1975 assessed as reduction in cell viability measured after 72 hrs by MTT assay; assay type: functional, cell-based; conditions: NCI-H1975, 72 h
HCT-116 [2] = experiment: Induction of apoptosis in human HCT-116 cells assessed as early apoptotic cells level at 1 uM incubated for 24 hrs by Annexin V-FITC/PI staining based flow cytometry (reference value: 0.17%); assay type: functional
LoVo = experiment: Cytotoxicity against human LoVo assessed as reduction in cell viability measured after 72 hrs by MTT assay; assay type: functional, cell-based
HeLa = experiment: Cytotoxicity against human Hela assessed as reduction in cell viability measured after 72 hrs by MTT assay; assay type: functional, cell-based
[3] = Solubility of compound in phosphate buffer at pH 4.5 incubated for 24 hrs under shaking condition by HPLC analysis; assay type: physicochemical
HCT-116 [4] = experiment: Induction of apoptosis in human HCT-116 cells assessed as late apoptotic cells level at 0.03 uM incubated for 24 hrs by Annexin V-FITC/PI staining based flow cytometry (reference value: 0.07%); assay type: functional
A549 = experiment: Cytotoxicity against human A549 assessed as reduction in cell viability measured after 72 hrs by MTT assay; assay type: functional, cell-based; conditions: A549, 72 h
HCT-116 [5] = experiment: Induction of apoptosis in human HCT-116 cells assessed as late apoptotic cells level at 1 uM incubated for 24 hrs by Annexin V-FITC/PI staining based flow cytometry (reference value: 0.07%); assay type: functional
Raji [6] = experiment: Cytotoxicity against human Raji assessed as reduction in cell viability measured after 72 hrs by MTT assay; assay type: functional, cell-based
COLO 205 = experiment: Cytotoxicity against human COLO 205 assessed as reduction in cell viability measured after 72 hrs by MTT assay; assay type: functional, cell-based; conditions: COLO 205, 72 h
[7] = Solubility of compound in water incubated for 24 hrs under shaking condition by HPLC analysis; assay type: physicochemical
HCT-116 [8] = experiment: Inhibition of colony formation in human HCT-116 cells at 1 nM incubated for 12 days by crystal violet dye based assay; assay type: functional, cell-based; conditions: time 12.0 day
HCT-116 [9] = experiment: Induction of apoptosis in human HCT-116 cells assessed as late apoptotic cells level at 0.001 uM incubated for 24 hrs by Annexin V-FITC/PI staining based flow cytometry (reference value: 0.07%); assay type: functional
HCT-116 [10] = experiment: Induction of apoptosis in human HCT-116 cells assessed as early apoptotic cells level at 0.03 uM incubated for 24 hrs by Annexin V-FITC/PI staining based flow cytometry (reference value: 0.17%); assay type: functional
HCT-116 [11] = experiment: Cytotoxicity against human HCT-116 assessed as reduction in cell viability measured after 72 hrs by MTT assay; assay type: functional, cell-based; conditions: HCT-116, 72 h
[12] = Solubility of compound in phosphate buffer at pH 7.4 incubated for 24 hrs under shaking condition by HPLC analysis; assay type: physicochemical
Raji [13] = experiment: Antitumor activity against NPG mouse xenografted with human Raji cell assessed as tumor growth inhibition at 5 mg/kg, ip measured after 5 day; assay type: functional; conditions: 120 h, read-out: TGI
[14] = Toxicity in NPG mouse xenografted with human Raji cells assessed as body weight loss at 5 mg/kg, ip measured on the 1 day; assay type: organism-based; conditions: in vivo, 24 h
[15] = Toxicity in nude BALB/c mouse xenografted with human HCT-116 cells assessed as reduction in body weight at 20 mg/kg, po dosed once the every 2 day for upto 24 days; assay type: organism-based; conditions: in vivo, time <=24 day
[16] = Toxicity in NPG mouse xenografted with human Raji cells assessed as body weight loss at 5 mg/kg, ip measured after 5 day; assay type: organism-based; conditions: in vivo, 120 h

| Compound | IC50 (NCI-H1975) [nM] | IC50 (LoVo) [nM] | IC50 (HeLa) [nM] | IC50 (A549) [nM] | IC50 (COLO 205) [nM] | IC50 (HCT-116 [11]) [nM] | also measured |
| --- | --- | --- | --- | --- | --- | --- | --- |
| CCc1c2c(nc3ccc(O)cc13)-c1cc3c(c(=O)n1C2)COC(=O)[C@]3(O)CC [7-ETHYL-10-HYDROXYCAMPTOTHECIN] | 810 | 301 | 145 | 18 | 220 | 10 | Activity (HCT-116 [1]): 2.91%; Activity (HCT-116 [2]): 24.42%; solubility thermodynamic at 24 h [3]: < 0.25 µg/mL; Activity (HCT-116 [4]): 8.29%; Activity (HCT-116 [5]): 7.12%; IC50 (Raji [6]): 5 nM; solubility thermodynamic at 24 h [7]: < 0.25 µg/mL; inhibition (HCT-116 [8]): Active; Activity (HCT-116 [9]): 2.81%; Activity (HCT-116 [10]): 3.11%; solubility thermodynamic at 24 h [12]: < 0.25 µg/mL |
| CC[C@@]1(O)C(=O)OCc2c1cc1n(c2=O)Cc2cc3cc(OCC(=O)N4CCC(N(C)C)CC4)ccc3nc2-1 | > 10000 | > 10000 | > 10000 | > 10000 | > 10000 | > 10000 | – |
| CCN(CC)CCNC(=O)COc1ccc2nc3c(cc2c1)Cn1c-3cc2c(c1=O)COC(=O)[C@]2(O)CC | > 10000 | > 10000 | > 10000 | > 10000 | > 10000 | > 10000 | – |
| CC[C@@]1(O)C(=O)OCc2c1cc1n(c2=O)Cc2cc3cc(OCC(=O)N4CCCCC4)ccc3nc2-1 | 1380 | 272 | 380 | 55 | 540 | 17 | – |
| CC[C@@]1(O)C(=O)OCc2c1cc1n(c2=O)Cc2cc3cc(OCC(=O)N4CCCC4)ccc3nc2-1 | 2810 | 880 | 1370 | 80 | 2830 | 81 | – |
| CC[C@@]1(O)C(=O)OCc2c1cc1n(c2=O)Cc2cc3cc(OCC(=O)N4CCN(C)CC4)ccc3nc2-1 | > 10000 | > 10000 | 2570 | > 10000 | > 10000 | > 10000 | – |
| CC[C@@]1(O)C(=O)OCc2c1cc1n(c2=O)Cc2cc3cc(OCC(=O)N(C)CCN(C)C)ccc3nc2-1 | > 10000 | > 10000 | > 10000 | > 10000 | > 10000 | > 10000 | – |
| CC[C@@]1(O)C(=O)OCc2c1cc1n(c2=O)Cc2cc3cc(OCC(=O)NCCN(C)C)ccc3nc2-1 | > 10000 | > 10000 | > 10000 | > 10000 | > 10000 | > 10000 | – |
| CCc1c2c(nc3ccc(OC(=O)N4CCC(N5CCCCC5)CC4)cc13)-c1cc3c(c(=O)n1C2)COC(=O)[C@]3(O)CC.Cl | – | – | – | – | – | – | inhibition in vivo at 5 mg/kg (Raji [13]): 7.1%; Activity [14]: 24.2 g; Activity [15]: Toxic; Activity [16]: 23.5 g |
| CCN(CC)C(=O)COc1ccc2nc3c(cc2c1)Cn1c-3cc2c(c1=O)COC(=O)[C@]2(O)CC | 1960 | 933 | 1010 | 261 | 1520 | 101 | – |
| CC[C@@]1(O)C(=O)OCc2c1cc1n(c2=O)Cc2cc3cc(O)ccc3nc2-1 [HYDROXYCAMPTOTHECIN] | – | 330 | – | 80 | – | 21 | – |
| CCc1c2c(nc3ccc(OCC(=O)N4CCCC4)cc13)-c1cc3c(c(=O)n1C2)COC(=O)[C@]3(O)CC | 630 | 181 | 350 | 37 | 250 | 12 | IC50 (Raji [6]): 6 nM |

— ChEMBL document CHEMBL4706505, “F10, a new camptothecin derivative, was identified as a new orally-bioavailable, potent antitumor agent” (Eur J Med Chem, 2020)
